# Literature values, collected in patent publication US20050042240A1, “High viscosity antibacterials” (priority 2002, published 2005).
# Conditions: chronic catheter lock context
smiles,measurement,value
CC(C)O [isopropyl alcohol],daily dose above which toxic symptoms can arise,> 500 mg
